Consider 2 molecules from ChEMBL document CHEMBL1137644, “Polymyxin B induces lysis of marine pseudoalteromonads” (Antimicrob Agents Chemother, 2007).

Common to all, as to format: functional, organism-based
Assay [1] deals with Pseudoalteromonas. Kind of assay: Induction of cell lysis in Pseudoalteromonas ER72M2 assessed as shrinkage of intracellular volume after 25 mins in presence of divalent cation by light microscopy.
In another assay the test system is Escherichia coli. Kind of assay: Induction of cell lysis in Escherichia coli HMS174 assessed as decrease in culture turbidity at 50 ug/ml.
The test system of assay [2] is Pseudoalteromonas. Kind of assay: Induction of cell lysis in Pseudoalteromonas ER72M2 assessed as accumulation of phenyldicarbaundecaborane treated at 50 ug/ml after 30 mins incubation.
The subject of assay [3] is Pseudoalteromonas. Kind of assay: Induction of cell lysis in Pseudoalteromonas ER72M2 assessed as intense membrane alkalization treated at 50 ug/ml after 30 mins addition of Mg2+ and Ca2+.
Assay [4] deals with Pseudoalteromonas. Kind of assay: Induction of cell lysis in Pseudoalteromonas ER72M2 assessed as decrease in culture turbidity treated at 50 ug/ml after 30 mins addition of Ca2+, Mg2+.
Assay [5] relates to Pseudoalteromonas espejiana. Kind of assay: Induction of cell lysis in Pseudoalteromonas espejiana BAL31 assessed as decrease in culture turbidity at 50 ug/ml.
In assay [6] the test system is Pseudoalteromonas. Kind of assay: Induction of cell lysis in Pseudoalteromonas ER72M2 assessed as leakage of intracellular K+ treated at 50 ug/ml after 30 mins incubation.
Assay [7] relates to Pseudoalteromonas. Kind of assay: Induction of cell lysis in Pseudoalteromonas ER72M2 at 10 ug/ml in presence of arsenate.
For assay [8], the system named is Pseudoalteromonas. Kind of assay: Induction of cell lysis in Pseudoalteromonas A28 assessed as decrease in culture turbidity at 50 ug/ml.
For assay [9], the system named is Pseudoalteromonas. Kind of assay: Induction of cell lysis in Pseudoalteromonas ER72M2 assessed as decrease in culture turbidity at 2 ug/ml in presence of nigericin.
For assay [10], the system named is Pseudoalteromonas. Kind of assay: Induction of cell lysis in Pseudoalteromonas ER72M2 assessed as increase in accumulation of phenyldicarbaundecaborane at 2 ug/ml.
The test system of assay [11] is Pseudoalteromonas. Kind of assay: Induction of cell lysis in Pseudoalteromonas ER72M2 assessed as voltage dissipation in presence of KCN.
In assay [12] the test system is Pseudoalteromonas. Kind of assay: Induction of cell lysis in Pseudoalteromonas ER72M2 assessed as decrease in culture turbidity treated at 50 ug/ml after 30 mins addition of Ca2+.
The subject of assay [13] is Pseudoalteromonas. Kind of assay: Induction of cell lysis in Pseudoalteromonas ER72M2 assessed as outer membrane permeability at 50 ug/ml.
Assay [14] has as its system Pseudoalteromonas. Kind of assay: Induction of cell lysis in Pseudoalteromonas ER72M2 at 10 ug/ml.
Assay [15] relates to Pseudoalteromonas. Kind of assay: Induction of cell lysis in Pseudoalteromonas ER72M2 assessed as permeability across outer membrane at 2 ug/ml.
For assay [16], the system named is Pseudoalteromonas. Kind of assay: Induction of cell lysis in Pseudoalteromonas ER72M2 assessed as increase in extracellular concentration of tetraphenylphonium treated at 50 ug/ml after 30 mins incubation.
The subject of assay [17] is Pseudoalteromonas. Kind of assay: Induction of cell lysis in Pseudoalteromonas ER72M2 assessed as depolarization of cytoplasmic membrane at 3 ug/ml in presence of gramicidin D.
The subject of assay [18] is Pseudoalteromonas. Kind of assay: Induction of cell lysis in Pseudoalteromonas ER72M2 assessed as complete lysis treated at 50 ug/ml after 30 mins addition of Ca2+, Mg2+.
Assay [19] has as its system Pseudoalteromonas. Kind of assay: Antimicrobial activity against Pseudoalteromonas ER72M2 after 50 hrs in presence of Mg2+ cation by epsilometer agar diffusion method. For orientation: Agar diffusion results depend on both activity and mobility in agar.
Assay [20] deals with Pseudoalteromonas. Kind of assay: Induction of cell lysis in Pseudoalteromonas ER72M2 assessed as decrease in culture turbidity.
Assay [21] has as its system Pseudoalteromonas. Kind of assay: Antimicrobial activity against Pseudoalteromonas ER72M2 after 50 hrs in presence of Ca2+ cation by epsilometer agar diffusion method.
Assay [22] relates to Pseudoalteromonas. Kind of assay: Induction of cell lysis in Pseudoalteromonas ER72M2 assessed as increase in accumulation of tetraphenylphonium at 2 ug/ml.
The test system of assay [23] is Pseudoalteromonas. Kind of assay: Antimicrobial activity against Pseudoalteromonas ER72M2 assessed as after 50 hrs in presence of Mg2+ and Ca2+ by epsilometer agar diffusion method.
Assay [24] has as its system Pseudoalteromonas. Kind of assay: Induction of cell lysis in Pseudoalteromonas ER72M2 assessed as dipolarization of cytoplasmic membrane treated at 50 ug/ml after 30 mins incubation.
Assay [25] has as its system Pseudoalteromonas. Kind of assay: Induction of cell lysis in Pseudoalteromonas ER72M2 assessed as binding of phenyldicarbaundecaborane at 3 ug/ml in presence of gramicidin D.
In assay [26] the test system is Pseudoalteromonas. Kind of assay: Antimicrobial activity against Pseudoalteromonas ER72M2 after 50 hrs by epsilometer agar diffusion method.
Assay [27] concerns Pseudoalteromonas. Kind of assay: Induction of cell lysis in Pseudoalteromonas ER72M2 assessed as decrease in culture turbidity treated at 50 ug/ml after 30 mins addition of Mg2+.
Assay [28] deals with Pseudoalteromonas. Kind of assay: Induction of cell lysis in gramicidin D-deplolarized Pseudoalteromonas ER72M2 assessed as decrease in culture turbidity at 2 ug/ml.
Assay [29] relates to Pseudoalteromonas. Kind of assay: Induction of cell lysis in Pseudoalteromonas ER72M2 assessed as depolarization of cytoplasmic membrane treated at 50 ug/ml after 30 mins addition of Mg2+ and Ca2+.
Assay [30] relates to Pseudoalteromonas. Kind of assay: Induction of cell lysis in Pseudoalteromonas ER72M2 assessed as increase in alkalization of membrane treated at 50 ug/ml after 30 mins incubation.
Assay [31] relates to Pseudoalteromonas. Kind of assay: Induction of cell lysis in Pseudoalteromonas ER72M2 assessed as accumulation of tetraphenylphonium treated at 50 ug/ml after 30 mins addition of Mg2+ and Ca2+.
For assay [32], the system named is Pseudoalteromonas. Kind of assay: Induction of cell lysis in Pseudoalteromonas ER72M2 assessed as decrease in culture turbidity at 2 ug/ml in presence of gramicidin D.
The test system of assay [33] is Pseudoalteromonas. Kind of assay: Induction of cell lysis in Pseudoalteromonas ER72M2 assessed as decipation of K+ gradient on cytoplasmic membrane treated at 50 ug/ml after 30 mins addition of Mg2+ and Ca2+.
Assay [34] relates to Pseudoalteromonas. Kind of assay: Induction of cell lysis in Pseudoalteromonas ER72M2 assessed as leakage of intracellular K+ at 3 ug/ml in presence of gramicidin D.
Assay [35] relates to Pseudoalteromonas. Kind of assay: Induction of cell lysis in Pseudoalteromonas ER72M2 assessed as accumulation of phenyldicarbaundecaborane treated at 50 ug/ml after 30 mins addition of Mg2+ and Ca2+.
For assay [36], the system named is Pseudoalteromonas. Kind of assay: Induction of cell lysis in Pseudoalteromonas ER72M2 assessed as extracellular K+ concentration treated at 50 ug/ml after 30 mins addition of Mg2+ and Ca2+.
Assay [37] has as its system Pseudoalteromonas. Kind of assay: Antimicrobial activity against Pseudoalteromonas ER72M2 up to 50 ug/ml.
For assay [38], the system named is Pseudoalteromonas. Kind of assay: Induction of cell lysis in Pseudoalteromonas ER72M2 assessed as cytoplasmic membrane integrity at 50 ug/ml.

Active and inactive are the calls of the source. The rule behind the calls is not given here. Bridge positions count the residues as written; N and C are the ends. Square brackets hold non-standard residues; d marks the D form. Peptide text beside a SMILES is read from it. Dab = NCC[C@H](N)C(=O)O

By MIC is commonly meant the lowest concentration that inhibits growth of the organism. As for POLYMYXIN B, the result (with Pseudoalteromonas [1]; in the assay on Escherichia coli; in the assay with Pseudoalteromonas [2]; in the assay with Pseudoalteromonas [3]; in assay [5]; with Pseudoalteromonas [6]) was Active. Besides, the outcome with Pseudoalteromonas [7], with Pseudoalteromonas [8], with Pseudoalteromonas [9], in the assay with Pseudoalteromonas [10], with Pseudoalteromonas [11] and with Pseudoalteromonas [12] was Active. Also, the outcome with Pseudoalteromonas [13], in the assay on Pseudoalteromonas [14], with Pseudoalteromonas [16], in the assay on Pseudoalteromonas [17], with Pseudoalteromonas [22] and in the assay with Pseudoalteromonas [24] was Active. In addition, the outcome in the assay on Pseudoalteromonas [25], in the assay on Pseudoalteromonas [27], with Pseudoalteromonas [29], in the assay with Pseudoalteromonas [30], with Pseudoalteromonas [31] and in the assay on Pseudoalteromonas [33] was Active. Further, the result in the assay with Pseudoalteromonas [34], with Pseudoalteromonas [35] and in the assay with Pseudoalteromonas [36] was Active. The result in the assay on Pseudoalteromonas [4], in the assay on Pseudoalteromonas [15], in the assay on Pseudoalteromonas [18], with Pseudoalteromonas [28] and in the assay on Pseudoalteromonas [32] was inactive. The MIC came out at 0.33 µg/mL in the assay with Pseudoalteromonas [19], 0.11 µg/mL in the assay on Pseudoalteromonas [21], 0.42 µg/mL with Pseudoalteromonas [23] and 0.33 µg/mL in the assay on Pseudoalteromonas [26]. Besides, the Activity entry in the assay with Pseudoalteromonas [20] was “Dose-dependent effect”.

Regarding `CC(C)C[C@@H]1NC(=O)[C@@H](Cc2ccccc2)NC(=O)[C@H](CCN)NC(=O)[C@@H](NC(=O)[C@H](CCN)NC(=O)[C@@H](N)[C@@H](C)O)CCNC(=O)[C@H]([C@@H](C)O)NC(=O)[C@H](CCN)NC(=O)[C@H](CCN)NC1=O` (H-T[Dab][Dab][Dab][dF]L[Dab][Dab]T; lactam 3-C), the outcome with Pseudoalteromonas [13] was Active. Moreover, the result in the assay with Pseudoalteromonas [37] and with Pseudoalteromonas [38] was inactive.
